Source: patent US12173018B2, “Penicillin-binding protein inhibitors” (priority 2018, dated 2024)
Where two headings read alike, the source gives them in different places.

Key:
[1] = target: E. coli PBP4 (Escherichia coli (strain K12), UniProt P24228); experiment: E. coli PBP4 Bocillin-FL fluorescence polarization competition binding assay
Description: To determine the ability of boronic acid-based test PBP inhibitors to bind Penicillin Binding Proteins (PBPs), Bocillin-FL (fluorescently-labeled penicillin V; ThermoFisher Scientific) was used in a fluorescence polarization (FP) competition binding assay to assess inhibitor binding to PBP2, PBP3 or PBP4 from Escherichia coli. PBPs were cloned and purified as described previously (King, D. T, et al., ACS Infectious Diseases 2015, 1, 175-184). To establish assay conditions for competition binding, an enzyme titration/saturation binding experiment was initially performed. Bocillin-FL was prepared at 0.2 μM in a buffer comprised of 50 mM Hepes (pH 8.0), 300 mM NaCl and 5% (v/v) glycerol. Saturation binding was performed by mixing 40 μl of PBP solutions ranging in concentrations from 0-12 μM with 40 μl of the 0.2 μM Bocillin-FL solution, in individual wells of a black 384-well microplate. FP was measured immediately upon mixing (Excitation, 490 nm; Emission, 520 nm; g-factor, 0.96), using a Cytation3 (BioTek) microplate reader and measured continuously for up to 120 minutes. […] Assays (80 μl final volume) were performed with PBPs at a final concentration of 1.5 μM, Bocillin-FL at 0.1 μM and beta-lactam concentrations that ranged from 0-1000 μM. […] Bocillin-FL was added and the FP immediately measured for 60 minutes (90 minutes for PBP2). The beta-lactam potency was reported as the concentration of beta-lactam required to reduce binding of Bocillin-FL by […] (EC50). […] Binding assays for boronic acid PBP inhibitors were performed in an identical fashion.

[2] = target: E. coli PBP3 (Escherichia coli (strain K12), UniProt P0AD68); experiment: E. coli PBP3 Bocillin-FL fluorescence polarization competition binding assay
Summary of the method: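 Steps: purified PBP (1.5 μM final) mixed with compound (0–1000 μM) in 50 mM Hepes pH 8.0, 300 mM NaCl, 5% glycerol; Bocillin-FL added to 0.1 μM; FP (ex 490, em 520 nm) followed for 60 min. Concentration reducing Bocillin-FL binding reported as EC50.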

[3] = system: K. pneumoniae 848844; experiment: microbe, parasite or virus in culture; type: cell-based, Klebsiella pneumoniae; conditions: Klebsiella pneumoniae; K. pneumoniae 848844 producing SHV-11 and KPC-2; read-out: MIC K. pneumoniae 848844
Summary of the method: (§1)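 Visual MIC readout after 16-20 h at 37° C in CLSI-format microdilution. Compounds tested as 2-fold series against a 5×10^5 CFU/mL inoculum in cation-supplemented Mueller-Hinton broth.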

[4] = system: A. baumannii ATCC 19606; experiment: Broth microdilution MIC, A. baumannii ATCC 19606; type: cell-based; conditions: Acinetobacter baumannii, ATCC19606, read-out: MIC A. baumannii ATCC 19606
Summary of the method: as §1

[5] = system: E. coli AG100; experiment: Broth microdilution MIC, E. coli AG100 (wild-type parent); type: cell-based; conditions: Escherichia coli; wild-type parent E. coli AG100, broth microdilution; read-out: MIC E. coli AG100
Summary of the method: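 Starting inoculum of 5×10^5 CFU/mL, from colonies grown 3-5 h in Mueller-Hinton broth with divalent cations, added to two-fold compound dilution series.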

[6] = system: E. coli ATCC 25922; experiment: Broth microdilution MIC, E. coli ATCC 25922; type: cell-based; conditions: Escherichia coli, ATCC25922, read-out: MIC E. coli 25922
Summary of the method: as §1

[7] = system: P. aeruginosa ATCC 27853; experiment: Broth microdilution MIC, P. aeruginosa ATCC 27853; type: cell-based; conditions: Pseudomonas aeruginosa, ATCC27853, read-out: MIC P. aeruginosa ATCC 27853
Protocol: To determine the ability of test compounds to potentiate the inhibition of the growth of bacterial strains, classic cell based broth microdilution minimum inhibitory concentration (MIC) assays were employed. MIC assays are performed according to CLSI methods except where otherwise noted (CLSI, 2011 and CLSI, 2009). The reference type strain E. coli ATCC 25922, the wild-type parent strain E. coli AG100, the hyper-permeable E. coli 901C and E. coli D22 and the E. coli AG100A strain lacking the acrAB efflux pump encoding genes were used to determine the ability of the PBP inhibitors to penetrate the outer membrane of gram-negative bacteria and inhibit bacterial growth. […] The P. aeruginosa PAO1, P. aeruginosa ATCC 27853 and A. baumannii ATCC 19606, along with the hyper-permeable P. aeruginosa ATCC 35151 and an engineered efflux pump-compromised strain of P. aeruginosa (ΔmexAB-oprM) were used to determine the ability of PBP inhibitors to penetrate the outer membrane of P. aeruginosa and A. baumannii and assess antibacterial activity against these important gram-negative organisms.
Briefly, cryo-preserved bacterial cultures of challenge strains are streaked for isolation on appropriate agar medium, in this case Mueller Hinton II agar. Following incubation to allow growth of the colonies, plates are sealed with parafilm and stored refrigerated for up to two weeks. For preparation of assay inoculum and to ensure low variability, at least 5 colonies are picked from the agar plates with an inoculating loop and aseptically transferred to a culture tube containing 3 mL of Mueller-Hinton Broth (supplemented with divalent cations to required levels based on Manufacturers' certification). The broth culture is grown for 3-5 hours at 37° C. with shaking at 200 rpm. Meanwhile, 2-fold serial dilutions of test compounds are conducted in a 96 well plate with a final volume of 75 μL per well at 2-fold the final desired concentration. After the dilution plates are set up the growing cultures are then diluted in a cuvette containing MH II broth and the optical density is measured at 600 nm. The Inoculum is diluted such that 75 μL of this culture in Mueller-Hinton Broth results in a starting bacterial concentration of 5×10^5 CFU/mL when added to the dilution plates. The plates are incubated for 16-20 hours at 37° C. The MIC values are read visually as the lowest concentration well with no bacterial growth.

[8] = system: K. pneumoniae SI-117; experiment: microbe, parasite or virus in culture; type: cell-based; conditions: Klebsiella pneumoniae, SI117, read-out: MIC K. pneumoniae SI-117
Summary of the method: as §1

[9] = system: K. pneumoniae UMM; experiment: microbe, parasite or virus in culture; type: cell-based; conditions: Klebsiella pneumoniae; K. pneumoniae UMM producing SHV-5 and KPC-2; read-out: MIC K. pneumoniae UMM
Summary of the method: as §1

[10] = system: E. coli 901C; experiment: microbe, parasite or virus in culture; type: cell-based; conditions: Escherichia coli; hyper-permeable E. coli 901C, broth microdilution; read-out: MIC E. coli 901C
Summary of the method: as §1

[11] = system: P. aeruginosa (ΔmexAB-oprM); experiment: microbe, parasite or virus in culture; type: cell-based; conditions: Pseudomonas aeruginosa, read-out: MIC P. aeruginosa ΔmexAB-OprM
Summary of the method: as §1

[12] = system: E. coli D22; experiment: microbe, parasite or virus in culture; type: cell-based; conditions: Escherichia coli; hyper-permeable E. coli D22, broth microdilution; read-out: MIC E. coli D22
Summary of the method: as §1

[13] = system: P. aeruginosa ATCC 35151; experiment: microbe, parasite or virus in culture; type: cell-based; conditions: Pseudomonas aeruginosa, ATCC35151; hyper-permeable P. aeruginosa ATCC 35151; read-out: MIC P. aeruginosa ATCC 35151
Summary of the method: as §1

[14] = system: E. coli AG100A; experiment: microbe, parasite or virus in culture; type: cell-based; conditions: Escherichia coli, read-out: MIC E. coli AG100A
Summary of the method: as §1

Compound | EC50 [1] [µM] | EC50 [2] [µM] | MIC [3] [µg/mL] | MIC [4] [µg/mL] | MIC [5] [µg/mL] | MIC [6] [µg/mL] | MIC [7] [µg/mL] | MIC [8] [µg/mL] | MIC [9] [µg/mL] | MIC [10] [µg/mL] | MIC [11] [µg/mL] | MIC [12] [µg/mL] | MIC [13] [µg/mL] | MIC [14] [µg/mL] | EC50 ([1]; assay validation with beta-lactams, PBP 1.5 μM, Bocillin-FL 0.1 μM, read-out: EC50 with PBP4 (reduction of Bocillin-FL binding)) [µM]
CCN1CCN(C(=O)N[C@H](Cc2ccc(O)c(O)c2)C(=O)N[C@H]2Cc3cccc(C(=O)O)c3OB2O)C(=O)C1=O [Example 40, (R)-3-((R)-3-(3,4-dihydroxyphenyl)-2-(4-ethyl-2,3-dioxopiperazine-1-carboxamido)propanamido)-2-hydroxy-3,4-dihydro-2H-benzo[e][1,2]oxaborinine-8-carboxylic acid] | 30 to 500 | 30 to 500 | – | – | – | – | – | – | – | – | – | – | – | – | –
C[C@H]1CN(CCN)C(=O)C(=O)N1C(=O)NC(C(=O)N[C@H]1Cc2cccc(C(=O)O)c2OB1O)c1ccc(O)c(O)c1Cl (stereo partly drawn) [Example 248, (3R)-3-(2-((S)-4-(2-aminoethyl)-6-methyl-2,3-dioxopiperazine-1-carboxamido)-2-(2-chloro-3,4-dihydroxyphenyl)acetamido)-2-hydroxy-3,4-dihydro-2H-benzo[e][1,2]oxaborinine-8-carboxylic acid] | – | – | 2 to 4 | 0.5 to 1 | 2 to 4 | 8 to 16 | 32 to 64 | 2 to 4 | 2 to 4 | 0.5 to 1 | < 0.25 | 2 to 4 | < 0.25 | 0.5 to 1 | –
O=C(O)CN1CCN(C(=O)NC(C(=O)N[C@H]2Cc3cccc(C(=O)O)c3OB2O)c2ccc(O)c(O)c2Cl)C(=O)C1=O (stereo partly drawn) [Example 249, (3R)-3-(2-(4-(carboxymethyl)-2,3-dioxopiperazine-1-carboxamido)-2-(2-chloro-3,4-dihydroxyphenyl)acetamido)-2-hydroxy-3,4-dihydro-2H-benzo[e][1,2]oxaborinine-8-carboxylic acid] | – | – | 2 to 4 | 0.5 to 1 | 8 to 16 | 32 to 64 | 0.5 to 1 | 8 to 16 | 8 to 16 | 2 to 4 | < 0.25 | 8 to 16 | < 0.25 | 8 to 16 | –
C[C@H]1CN(CCN)C(=O)C(=O)N1C(=O)N[C@@H](C(=O)N[C@H]1Cc2ccc(F)c(C(=O)O)c2OB1O)c1ccc(O)c(O)c1Cl [Example 250, (R)-3-((R)-2-((S)-4-(2-aminoethyl)-6-methyl-2,3-dioxopiperazine-1-carboxamido)-2-(2-chloro-3,4-dihydroxyphenyl)acetamido)-7-fluoro-2-hydroxy-3,4-dihydro-2H-benzo[e][1,2]oxaborinine-8-carboxylic acid] | – | – | 0.5 to 1 | < 0.25 | 0.5 to 1 | 2 to 4 | 0.5 to 1 | 2 to 4 | 0.5 to 1 | 0.5 to 1 | < 0.25 | 0.5 to 1 | < 0.25 | 0.5 to 1 | –
CCN1CCN(C(=O)N[C@@H](C(=O)N[C@H]2Cc3ccc(F)c(C(=O)O)c3OB2O)c2c(F)cc(O)c(O)c2Cl)C(=O)C1=O [Example 251, (R)-3-((R)-2-(2-chloro-6-fluoro-3,4-dihydroxyphenyl)-2-(4-ethyl-2,3-dioxopiperazine-1-carboxamido)acetamido)-7-fluoro-2-hydroxy-3,4-dihydro-2H-benzo[e][1,2]oxaborinine-8-carboxylic acid] | – | – | 2 to 4 | 0.5 to 1 | 0.5 to 1 | 2 to 4 | 0.5 to 1 | 2 to 4 | 0.5 to 1 | 0.5 to 1 | < 0.25 | 0.5 to 1 | < 0.25 | 0.5 to 1 | –
NCCCN1CCN(C(=O)N[C@@H](C(=O)N[C@H]2Cc3cccc(C(=O)O)c3OB2O)c2ncc(O)cc2F)C(=O)C1=O [Example 252, (R)-3-((R)-2-(4-(3-aminopropyl)-2,3-dioxopiperazine-1-carboxamido)-2-(3-fluoro-5-hydroxypyridin-2-yl)acetamido)-2-hydroxy-3,4-dihydro-2H-benzo[e][1,2]oxaborinine-8-carboxylic acid] | – | – | 32 to 64 | > 128 | 8 to 16 | 8 to 16 | 32 to 64 | 32 to 64 | 8 to 16 | 0.5 to 1 | 8 to 16 | 2 to 4 | < 0.25 | 0.5 to 1 | –
C[C@@H](O)[C@H]1C(=O)N2C(C(=O)O)=C(S[C@@H]3CN[C@H](C(=O)N(C)C)C3)[C@H](C)[C@H]12 [meropenem, reference compound] | – | – | – | – | – | – | – | – | – | – | – | – | – | – | < 2
